According to patent US12133846B2, “Electrophilic androgen receptor (AR) antagonists for AR downregulation and ferroptosis induction in cancer cells” (priority 2019, dated 2024):

Experiments:
[1] = 2-63 releases 12b in aqueous buffer (HPLC); format: physicochemical; settings: PBS buffer; 2-63 50 μM, PBS pH 7.4, 5% acetonitrile, 37° C., from HPLC peak area; read-out: half-life of 2-63 (decomposition, release of free ITC 12b) (converted)
Protocol: (§1) NAC conjugate 2-63 gradually releases free ITC 12b under physiological condition. The NAC conjugate of ITC could reversibly form free ITCs in aqueous solution (Zhang, Y., Carcinogenesis 2012, 33, 2-9). To test this possibility on the setting of ITC-ARi, 2-63 (50 μM) was dissolved in PBS at physiological pH (7.4), and its decomposition was monitored at 37° C. using HPLC. […] 2-63, therefore, can be viewed as a more water-soluble prodrug of 12b when it is used in cell culture or administrated in vivo. This NAC conjugation approach avoids acute/instant electrophilic insult and can constrain the concentration of electrophilic ITC within certain levels. Since non-cancerous cells usually have a larger GSH/antioxidant pool to neutralize electrophilic/oxidative attack (Trachootham, et al., Cancer Cell 2006, 10, 241-252), different tolerability to 2-63 could be seen between cancerous and noncancerous cells.
2-63 releases 12b in aqueous buffer. Samples for HPLC analysis were prepared by diluting the stock solution (50 mM in DMSO) of 2-63 in PBS buffer (10 mM, pH 7.4) containing 5% acetonitrile. The sample was immediately analyzed right after dilution. The aliquot of incubated samples (37° C.) was analyzed at indicated time points. A linear plot of the log (peak area) versus incubation time was generated to determine the half-life (T1/2) of decomposition. […]

[2] = Polarity/water solubility by retention on C18 reversed-phase HPLC; format: physicochemical; settings: shorter retention time on C18 reversed-phase HPLC column
Protocol: as §1

VCaP cells [3] = experiment: MTT viability assay, VCaP cells; format: cell-based; settings: Homo sapiens, VCaP, 72 h, read-out: IC50, viability of VCaP cells
Text: (§2) Biological Characterization. ITC-ARi hybrid drugs effectively reduce the viability of PCa cells. By using an MTT assay, it was first examined if the newly synthesized hybrid drugs affect the viability of CRPC-relevant PCa cells. PCa VCaP cells naturally express abundant wild type FL AR as well as AR splice variants (e.g., AR-V7). These cells were, therefore, used as one of the cell culture models in this work to investigate the drug-caused viability loss and AR downregulation.

C4-2 cells [4] = experiment: MTT viability assay, C4-2 cells; format: cell-based; settings: 5 μM, 72 h
Text: as §2

[5] = tested on: AR transcriptional activity in MDA-kb2 cells; experiment: cells; format: cell-based; settings: DHT 1 nM
Protocol: MDA-kb2-cell-based ARE luciferase assays were performed to assess the influence of 2-63 and related compounds on AR transcriptional activity. […] Upon androgen stimulation and addition of a luciferase substrate, […], and the intensity is proportional to the extent of AR activation. An agent that either antagonistically competes with DHT for AR binding or reduces the expression of AR diminishes luciferase activity/fluorescence signal in this experimental system. […] 10b (an alcohol) and 11 b (an azide) are synthetic precursors of the ITC hybrid 12b.
Luciferase Assay. […] For all procedures, cells were incubated at CO2 free condition. Steady-Glo® (Promega Corp., Madison, WI) reagent was added to culture media with shaking for 10 min. Samples (100 μL) were transferred to an opaque 96-well white plate, and luminescence was measured using a luminometer.

22Rv1 cells [6] = experiment: Colony formation assay, 22Rv1 cells; format: cell-based; settings: 2-63 1 μM plus BSO 5 μM, 24 h, then drug-free medium 11 days
Protocol: Colony formation assay. Cells (22Rv1 or C4-2) were seeded in six-well plates (1,000/well) and cultured overnight. Cells were then treated with 2-63 (1 μM in 22Rv1; 2.5 μM in C4-2), BSO (5 μM) alone or in combination for 24 h. Cells were washed and cultured in a drug-free medium (22Rv1, 11 days; C4-2, 8 days). On the last day, the medium was removed, cells were washed with PBS and fixed with methanol. The colonies were stained with crystal violet solution for 3 h at room temperature and air-dried.

PARP cleavage = PARP cleavage under 2-63 plus BSO in PCa cells; format: cell-based; settings: 2-63 plus BSO combination, data not shown
Text: 2-63 and BSO combination induces ferroptosis in PCa cells. […] Because both ITC and BSO change redox balance, and because the significant upregulation of HO-1 by 2-63 (FIG. 21) may increase free ferrous iron (Fe2+) inside cells, ferroptosis, a recently defined non-apoptotic cell death mechanism that occurs due to ROS and iron-caused oxidative lipid damage (Stockwell, et al., Cell 2017, 171, 273-285) was explored.

C4-2 cells [7] = settings: 5 μM, DHT 1 nM, charcoal stripped FBS, 6 days
Protocol: The medium and drug were refreshed every two days.
The anti-PCa potential of 2-63 was further characterized by assessing its inhibitory effects on DHT-stimulated C4-2 cell growth. […] C4-2 cells were cultured in charcoal-stripped, steroid-free medium and cells were stimulated with androgen.

VCaP cells [8] = experiment: BSO pretreatment plus drug, MTT viability, VCaP cells
Protocol: (§3) Cell viability was then assessed using an MTT assay.
(§4) PCa cells (6×10^3 cells/well) were seeded into 96-well plates overnight and then treated with indicated compounds at indicated concentrations and time durations. The MTT (3-(4, 5-Dimethylthiazol-2-yl)-2,5-diphenyltetrazolium bromide) assay was performed according to the standard protocol. Briefly, MTT (0.5 mg/mL) was incubated with cells at 37° C. for 3 hours. Supernatant was removed, followed by the addition of dimethyl DMSO (100 μl). After incubation for 30 minutes at 37° C., absorbance was read at 570 nm on a microplate reader.

22Rv1 cells [9] = experiment: BSO pretreatment plus drug, MTT viability, 22Rv1 cells
Protocol: as §3, §4

[10] = BSO 2.5-10 μM 16 h pretreatment, then 2-63 1-10 μM 24 h, synergism = index <0.8

## CC(=O)N[C@H](CSC(=S)NCCCCCCc1ccc(N2C(=S)N(c3ccc(C#N)c(C(F)(F)F)c3)C(=O)C2(C)C)cn1)C(=O)O [2-63, N-acetyl-S-((6-(5-(3-(4-cyano-3-(trifluoromethyl)phenyl)-5,5-dimethyl-4-oxo-2-thioxoimidazolidin-1-yl)pyridine-2-yl)hexyl)carbamothioyl)-D-cysteine]
[1]
  half-life at 50 μM: 3.4 h
[2]
  polarity/water solubility of 2-63 over 12b: greatly improves
VCaP cells [3]
  IC50: 6.09 µM
C4-2 cells [4]
  relative potency in viability reduction, C4-2 cells: 12b>2-63>PEITC-NAC
[5]; 1 μM
  AR inhibition at 1 μM relative to Enz, 10b and 11b: less effective
[5]; 1-5 μM
  suppression of DHT-stimulated luciferase activity: decreased luciferase activity in a dose-dependent manner
[5]; 2.5 and 5 μM
  AR inhibition at higher concentrations relative to comparators: similarly with these non-ITC-containing compounds
22Rv1 cells [6]
  colony formation of 22Rv1 cells: very efficiently suppressed colony formation
PARP cleavage
  PARP cleavage: did not cause detectable PARP cleavage
C4-2 cells [7]
  viability reduction of DHT-stimulated C4-2 cells: 70%
VCaP cells [8]; [10]
  combinatorial effect with BSO (interaction index), VCaP: synergistically reduced viability
VCaP cells [8]; BSO plus 2-63 reduced to 2.5 μM, 24 h
  viability suppression, VCaP cells: 60%
22Rv1 cells [9]; [10]
  combinatorial effect with BSO (interaction index), 22Rv1: synergistically reduced viability
22Rv1 cells [9]; Homo sapiens, 22Rv1, 24 h, read-out: viability reduction, 22Rv1 cells
  cytotoxicity at 5 µM: 65%
